# Reference: patent US20100305143A1, “PYRROLOPYRIMIDINE COMPOUNDS” (VERNALIS (R & D) LTD., priority 2007, published 2010)
# Biological target: T1, human adenosine A2B receptors (Homo sapiens, UniProt P29275)
# T1 construct: expressed in transfected cells
# T1 sequence (P29275 1-332): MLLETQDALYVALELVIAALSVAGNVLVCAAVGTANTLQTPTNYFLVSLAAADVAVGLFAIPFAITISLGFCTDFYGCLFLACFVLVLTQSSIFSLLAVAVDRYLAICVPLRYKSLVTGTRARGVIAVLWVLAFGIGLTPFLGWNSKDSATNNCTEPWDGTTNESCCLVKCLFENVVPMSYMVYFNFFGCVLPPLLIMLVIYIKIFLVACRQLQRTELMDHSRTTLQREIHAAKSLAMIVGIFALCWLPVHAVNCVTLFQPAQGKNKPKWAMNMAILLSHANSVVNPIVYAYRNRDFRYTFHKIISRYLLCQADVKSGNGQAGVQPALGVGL
# Experiment: FLIPR calcium flux assay in cells expressing human adenosine A2B receptors
# Format: cell-based
# Conditions: expressed human adenosine A2B receptors in mammalian cell lines, from dose response curves, read-out: Activity (IC50 activity range)
# Protocol: The use of a Fluorometric Imaging Plate Reader (FLIPR) to measure calcium flux in Adenosine-receptor expressing cells is a well-established technique. In this assay calcium flux is triggered by receptor activation and measured through the fluorescence of an incorporated calcium-sensitive dye. The potencies shown were determined using expressed human adenosine A2B receptors in mammalian cell lines. Selectivity values were obtained by using mammalian cell lines expressing the human adenosine A1, A2A and A3 receptors. Compound potency was determined from dose response curves and are reported as IC50 values.
row,SMILES,IC50 [nM]
1,"Cn1ccc2c(C(=O)c3cccs3)nc(NCc3cccnc3)nc21 [Example 6, {7-Methyl-2-[(pyridin-3-ylmethyl)-amino]-7H-pyrrolo[2,3d]pyrimidin-4-yl}-thiophen-2-yl-methanone]",< 500
2,"CC(Nc1nc(C(=O)c2cccs2)c2ccn(C)c2n1)c1cccnc1 (centres unmarked) [Example 7, [7-Methyl-2-(1-pyridin-3-yl-ethylamino)-7H-pyrrolo[2,3-d]pyrimidin-4-yl]-thiophen-2-yl-methanone]",< 500
3,"Cc1ccc(C(=O)c2nc(NCc3cccnc3)nc3c2ccn3C)s1 [Example 8, {7-Methyl-2-[(pyridin-3-ylmethyl)-amino]-7H-pyrrolo[2,3-d]pyrimidin-4-yl}-(5-methyl-thiophen-2-yl)-methanone]",< 500
4,"Cc1ccc(C(=O)c2nc(NCc3ccccn3)nc3c2ccn3C)s1 [Example 9, {7-Methyl-2-[(pyridin-2-ylmethyl)-amino]-7H-pyrrolo[2,3-d]pyrimidin-4-yl}-(5-methyl-thiophen-2-yl)-methanone]",< 500
5,"Cc1ccc(C(=O)c2nc(NCc3ccncc3)nc3c2ccn3C)s1 [Example 10, {7-Methyl-2-[(pyridin-4-ylmethyl)-amino]-7H-pyrrolo[2,3-d]pyrimidin-4-yl}-(5-methyl-thiophen-2-yl)-methanone]",> 500
6,"O=C(c1cccs1)c1nc(Cl)nc2[nH]ccc12 [Example 13, (2-Chloro-7H-pyrrolo[2,3-d]pyrimidin-4-yl)-thiophen-2-yl-methanone]",> 500
7,"O=C(c1cccs1)c1nc(NCc2ccccn2)nc2[nH]ccc12 [Example 14, {2-[(Pyridin-2-ylmethyl)-amino]-7H-pyrrolo[2,3-d]pyrimidin-4-yl}-thiophen-2-yl-methanone]",> 500
8,"O=C(c1cccs1)c1nc(Cl)nc2c1ccn2Cc1ccccc1 [Example 17, (7-Benzyl-2-chloro-7H-pyrrolo[2,3-d]pyrimidin-4-yl)-thiophen-2-yl-methanone]",> 500
9,"O=C(c1cccs1)c1nc(NCc2cccnc2)nc2c1ccn2Cc1ccccc1 [Example 18, {7-Benzyl-2-[(pyridin-3-ylmethyl)-amino]-7H-pyrrolo[2,3-d]pyrimidin-4-yl}-thiophen-2-yl-methanone]",> 500
10,"CCCCCn1ccc2c(C(=O)c3cccs3)nc(NCc3cccnc3)nc21 [Example 19, {7-Pentyl-2-[(pyridin-3-ylmethyl)-amino]-7H-pyrrolo[2,3-d]pyrimidin-4-yl}-thiophen-2-yl-methanone]",> 500
11,"O=C(c1cccs1)c1nc(NCc2cccnc2)nc2c1ccn2CC1CC1 [Example 20, {7-Cyclopropylmethyl-2-[(pyridin-3-ylmethyl)-amino]-7H-pyrrolo[2,3-d]pyrimidin-4-yl}-thiophen-2-yl-methanone]",> 500
12,"CCCn1ccc2c(C(=O)c3cccs3)nc(NCc3cccnc3)nc21 [Example 21, {7-Propyl-2-[(pyridin-3-ylmethyl)-amino]-7H-pyrrolo[2,3-d]pyrimidin-4-yl}-thiophen-2-yl-methanone]",> 500
13,"Cn1cc(Br)c2c(C(=O)c3cccs3)nc(NCc3cccnc3)nc21 [Example 25, {5-Bromo-7-methyl-2-[(pyridin-3-ylmethyl)-amino]-7H-pyrrolo[2,3-d]pyrimidin-4-yl}-thiophen-2-yl-methanone]",> 500
14,"Cn1cc(-c2ccccc2)c2c(C(=O)c3cccs3)nc(NCc3cccnc3)nc21 [Example 26, {7-Methyl-5-phenyl-2-[(pyridin-3-ylmethyl)-amino]-7H-pyrrolo[2,3-d]pyrimidin-4-yl}-thiophen-2-yl-methanone]",> 500
15,"Cn1cc(-c2ccc(S(C)(=O)=O)cc2)c2c(C(=O)c3cccs3)nc(NCc3cccnc3)nc21 [Example 27, {5-(4-Methanesulfonyl-phenyl)-7-methyl-2-[(pyridin-3-ylmethyl)-amino]-7H-pyrrolo[2,3-d]pyrimidin-4-yl}-thiophen-2-yl-methanone]",> 500
16,"COc1ccc(-c2cn(C)c3nc(NCc4cccnc4)nc(C(=O)c4cccs4)c23)cc1 [Example 28, {5-(4-Methoxy-phenyl)-7-methyl-2-[(pyridin-3-ylmethyl)-amino]-7H-pyrrolo[2,3-d]pyrimidin-4-yl}-thiophen-2-yl-methanone]",> 500
17,"COc1ccccc1-c1cn(C)c2nc(NCc3cccnc3)nc(C(=O)c3cccs3)c12 [Example 29, {5-(2-Methoxy-phenyl)-7-methyl-2-[(pyridin-3-ylmethyl)-amino]-7H-pyrrolo[2,3-d]pyrimidin-4-yl}-thiophen-2-yl-methanone]",> 500
18,"Cn1c(Br)cc2c(C(=O)c3cccs3)nc(Cl)nc21 [Example 35, (6-Bromo-2-chloro-7-methyl-7H-pyrrolo[2,3-d]pyrimidin-4-yl)-thiophen-2-yl-methanone]",< 500
19,"Cn1c(Cl)cc2c(C(=O)c3cccs3)nc(Cl)nc21 [Example 39, (2,6-Dichloro-7-methyl-7H-pyrrolo[2,3-d]pyrimidin-4-yl)-thiophen-2-yl-methanone]",< 500
20,"Cn1c(Cl)cc2c(C(=O)c3cccs3)nc(NCc3cccnc3)nc21 [Example 40, {6-Chloro-7-methyl-2-[(pyridin-3-ylmethyl)-amino]-7H-pyrrolo[2,3-d]pyrimidin-4-yl}-thiophen-2-yl-methanone]",> 500
